# Experimental data taken from patent publication US20050209320A1 (priority 2003, published 2005).
# Where two headings read alike, the source gives them in different places.
# What was measured:
# [1] = tested on: CV-1 monkey kidney cells (do not express AR); conditions: for IC50: read-out: Growth Curve CV-1
# [2] = tested on: LNCaP prostate cancer cells (express AR); conditions: for IC50: read-out: Growth Curve LNCaP
# [3] = tested on: LNCaP prostate cancer cells (express AR); assay: cells; conditions: Homo sapiens, 120 h, read-out: Growth Curve LNCaP
# [4] = tested on: LNCaP prostate cancer cells (express AR)
# Androgen Receptor (AR) = target: T1, Androgen Receptor (AR) (Rattus norvegicus, UniProt P15207); type: binding
# T1 sequence (P15207 1-902): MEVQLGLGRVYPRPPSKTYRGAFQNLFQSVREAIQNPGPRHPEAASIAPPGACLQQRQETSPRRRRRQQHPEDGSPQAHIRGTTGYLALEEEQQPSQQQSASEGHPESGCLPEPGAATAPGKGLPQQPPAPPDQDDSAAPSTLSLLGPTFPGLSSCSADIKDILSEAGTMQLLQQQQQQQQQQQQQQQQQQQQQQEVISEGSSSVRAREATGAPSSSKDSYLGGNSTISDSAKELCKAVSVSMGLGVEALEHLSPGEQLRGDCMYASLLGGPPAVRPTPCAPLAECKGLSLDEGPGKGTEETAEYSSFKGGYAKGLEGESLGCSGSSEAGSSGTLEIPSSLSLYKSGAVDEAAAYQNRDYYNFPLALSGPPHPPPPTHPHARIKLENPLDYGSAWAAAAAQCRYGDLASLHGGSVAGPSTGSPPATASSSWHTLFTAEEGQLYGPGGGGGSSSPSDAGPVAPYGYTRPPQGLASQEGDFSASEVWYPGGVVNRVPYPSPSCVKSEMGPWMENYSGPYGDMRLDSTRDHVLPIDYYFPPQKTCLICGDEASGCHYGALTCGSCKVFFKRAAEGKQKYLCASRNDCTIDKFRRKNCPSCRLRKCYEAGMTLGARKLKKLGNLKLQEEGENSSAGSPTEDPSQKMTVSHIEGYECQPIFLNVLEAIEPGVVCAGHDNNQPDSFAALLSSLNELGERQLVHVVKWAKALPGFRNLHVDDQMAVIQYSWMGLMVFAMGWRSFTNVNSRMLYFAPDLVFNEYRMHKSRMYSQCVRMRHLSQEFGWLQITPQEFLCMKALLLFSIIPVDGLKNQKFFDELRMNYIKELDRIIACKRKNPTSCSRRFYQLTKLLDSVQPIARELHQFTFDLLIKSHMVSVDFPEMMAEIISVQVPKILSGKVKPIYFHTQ
Compound,IC50 [1] [nM],IC50 [2] [nM],cytotoxicity / cell growth inhibition in LNCaP cells [2],also measured
C[C@](O)(COc1ccc(N(CCCl)CCCl)cc1)C(=O)Nc1ccc(C#N)c(C(F)(F)F)c1.Cl [Compound 1],1940,860,–,cytotoxicity in CV-1 cells [1]: cytotoxic; potency in CV-1 cells less than in LNCaP cells [1]: approximately 3.5 fold
C[C@](O)(COc1ccc(N(CCO)CCO)cc1)C(=O)Nc1ccc(C#N)c(C(F)(F)F)c1 [Compound 2],–,–,not cytotoxic,cytotoxicity in CV-1 cells [1]: not cytotoxic; IC50 [3]: 770 nM; max inhibition [2]: Trypan Blue (max 65% inhibition)
OCCN(CCO)c1ccc(O)cc1 [Compound 4],–,–,–,cytotoxicity in LNCaP cells [4]: nontoxic; Ki (nM) (Androgen Receptor (AR)): DNB
C[C@](O)(CSc1ccc(OC(=O)N(CCCl)CCCl)cc1)C(=O)Nc1ccc([N+](=O)[O-])c(C(F)(F)F)c1 [Compound 6],4650,800,–,–
C[C@](O)(COc1ccc(N(CCCl)CCCl)cc1)C(=O)Nc1ccc(C#N)c(I)c1.Cl [Compound 7],2610,330,potent and selective cell growth inhibition effect,–
C[C@](O)(COc1ccc(N(CCCl)CCCl)cc1)C(=O)Nc1ccc([N+](=O)[O-])c(C(F)(F)F)c1.Cl [Compound 8],5200,810,potent and selective cell growth inhibition effect,–
C[C@](O)(CS(=O)(=O)c1ccc(OC(=O)N(CCCl)CCCl)cc1)C(=O)Nc1ccc([N+](=O)[O-])c(C(F)(F)F)c1 [Compound 10],2600,1500,–,–
